System: diesel fuel smoke lung injury (model of ARDS and SARS)
Parameters: species or system rats and rabbits
Conditions: in vivo, iv

Question: What does the source list for Sar^9, Met (02) 11-Substance P?
Answer: 6-keto-PGF1α: decreased; PGE2: decreased; clara cell necrosis: attenuated; damage to the alveolar-capillary barrier membrane: attenuates; pulmonary alveolar macrophage number: reduced

— patent publication US20100267616A1, “ACUTE R[…]” (ImmuneRegen Biosciences, Inc., priority 2003, published 2010)
